The test system of assay [1] is AeSCP-2 gene expression. Description: In vitro tissue culture of 4th instar gut and carcass with 20E; dot blotting and western blotting. In kind it is cell-based, Aedes aegypti. The protocol: To investigate whether ecdysteroids affect AeSCP-2 expression, 12 hour-old 4th instars were dissected to separate the head, gut, and carcass. Gut and carcass were cultured in the same dish with and without 20E (60 ng/ml) for 6 hours. […] As expected, at the protein level AeSCP-2 increased in 20E-treated gut tissue cultures (FIG. 7A, inset, lane 5).
Northern and dot blotting analysis—Fifteen to twenty microgram of total RNA from indicated stages was used in Northern blotting analysis as described (Ausubel et al., 1993). After electrophoresis, RNAs in the formaldehyde-agarose gel was blotted onto positively charged Nylon membrane (Millipore, Bedford, Mass.). For dot blotting analysis, 5 ug of total RNA from three parallel samples (10 larvae per sample) of each developmental time point were blotted on to positively charged Nylon membrane as described (Millipore). The membranes were baked at 80° C. under vacuum for 1 hour and UV cross-linked (Stratagene Cloning system, La Jolla, Calif.).
Western blotting analysis—Intact animals, dissected tissues and cultured tissues were homogenized in lysis buffer (0.25M TRIS®HCl (hydroxymethyl aminomethane hydrochloride), pH 8.0/0.2% TRITON®X-100 (octyl phenol ethoxylate) 1 mM dithioerythritol/5 mM EDTA/10 mM β-mercaptoethanol/1 mM phenylmethylsulfonyl fluoride/protease inhibitor cocktail (Sigma)), and centrifuged at 12000×g at 4° C. for 15 minutes. Supernatants containing solvable proteins were stored at −80° C. Protein concentrations were determined using a BCA kit (Pierce, Rockford, Ill.). […]
In vitro tissue culture—Staged 4th instars were dissected in insect saline (Riddiford et al., 1979) to obtain gut and carcass for in vitro tissue culture study. […] Pure 20-hydroxyecdysone (Sigma) was dissolved in 95% ethanol, and the concentration was determined by UV spectrum absorption analysis at 243 nm wavelength (20E mg/ml=(OD 243×480)/ε and the ε=12,670). […] Total RNA was extracted from cultured tissues and analyzed by Dot blotting. […] Soluble proteins were extracted from cultured tissues and analyzed by western blotting.

For assay [2], the target named is SCP-2. The note with it: vertebrate SCP-2, Gallegos et al., 2001; read-out: Kd values of SCP-2 cholesterol-binding; cited from earlier work.
Assay [3] has as its target recombinant AeSCP-2 (Aedes aegypti, UniProt Q86PR3). The assay can be described thus: Radiolabeled cholesterol binding assay (Lipidex-1000), Scatchard plot. The note with it: [3H]cholesterol, rAeSCP-2 8 pM per assay, 4° C. overnight, N=6. The source says:
Whether AeSCP-2 binds cholesterol with high affinity was examined using radiolabeled cholesterol and recombinant AeSCP-2 (rAeSCP-2). Lipidex-1000 has been used for studying lipid/sterol binding proteins over decades and is proven to be a reliable assay (Glatz and Veerkamp, 1983; Colles et al., 1995). The recombinant protein was purified as GST-tagged fusion protein (FIG. 5, lanes 2 and 5) on the GST affinity column and the GST-tag was removed using Thrombin (FIG. 5, lane 4). After 16-hour Thrombin digest, there was still considerable amount of uncut fusion proteins (FIG. 5, lane 5) that may be resulted from insufficient concentration of Thrombin in the column (400 units/10 ml column). Further digest with increased level of Thrombin did completely remove the GST tag (data not shown). To optimize the condition for binding assay, varied concentrations of rAeSCP-2 was tested with 0.07 to 0.1 pM of radiolabeled cholesterol per assay. […]
Radiolabeled cholesterol binding assay—The binding of radiolabeled cholesterol to AeSCP-2 was measured based on the Lipidex-1000 assay (Glatz and Veerkamp, 1983) optimized for AeSCP-2. […]
Standard cholesterol solution was made from pure cholesterol (Sigma) in 95% ethanol at concentrations 0.04 nM to 20 uM. […] The slope=−Ka and Kd was calculated as […].

Several values for one entry are separate records, joined by “and”; a condition that tells them apart may be missing. Identical values can stand only once.

Usually Kd stands for a measure of binding affinity in units of concentration.

Turning to `CC(C)(O)CC[C@@H](O)[C@](C)(O)[C@H]1CC[C@@]2(O)C3=CC(=O)[C@@H]4C[C@@H](O)[C@@H](O)C[C@]4(C)[C@H]3CC[C@]12C` [20E, 20-hydroxyecdysone], in assay [1] (20E 60 ng/ml, 6 hours, carcass of 12 hour-old 4th instars), the “increase of AeSCP-2 mRNA level in cultured carcass” value is on record as “not in the carcass”. In addition, the “increase of AeSCP-2 mRNA level in cultured gut” value in assay [1] (20E 60 ng/ml, 6 hours, gut of 12 hour-old 4th instars) turned out to be 2 fold. Also, the “AeSCP-2 protein level in gut tissue cultures” value in assay [1] (20E-treated gut, western blot, FIG. 7 inset lane 5) was “increased”.

`CC(C)CCC[C@@H](C)[C@H]1CC[C@H]2[C@@H]3CC=C4C[C@@H](O)CC[C@]4(C)[C@H]3CC[C@]12C` [cholesterol]: the Kd in assay [2] was 4 to 2600 nM; in assay [3], 5.5 nM and 5.6 nM.

The values above are taken from patent US7150972B2, “Sterol carrier protein-2 from the mosquito, Aedes aegypti” (Wisconsin Alumni Research Foundation, priority 2003, dated 2006).
